Measurements reported in publication PMC10838150 (Toxicology in vitro : an international journal published in …, 2021).
Where two headings read alike, the source gives them in different places.

Experiments:
[1] = tested on: HepG2; test: Metabolic clearance; settings: HepG2, 1 μM
[2] = Metabolic clearance; settings: human, HepG2 cells, Mean Half-life, HepG2, 1 μM, one-phase exponential decay
[3] = tested on: 50-donor pool PHHs; test: Metabolic clearance; settings: 1 μM
[4] = Metabolic clearance; settings: human, Mean Half-life, 50-donor pool PHHs, one-phase exponential decay
[5] = tested on: MCF7; test: Metabolic clearance; settings: MCF7, 1 μM
[6] = Metabolic clearance; settings: human, MCF7 cells, Mean Half-life, MCF7, 1 μM, one-phase exponential decay
[7] = tested on: HEK293; test: Metabolic clearance; settings: HEK293, 1 μM
[8] = Metabolic clearance; settings: human, HEK293 cells, Mean Half-life, HEK293, 1 μM, one-phase exponential decay
[9] = tested on: PHHs; settings: 150 minutes, 50 μM 7HC
[10] = tested on: MCF7
[11] = tested on: HepG2
[12] = tested on: HEK293
[13] = tested on: CYP1A2; test: CYP450-Glo bioluminescent assay CYP1A2 in Tox21 cell lines; type: cell-based; settings: 24 hours pretreatment
[14] = tested on: HepG2; settings: human, 1 μM
[15] = tested on: 50-donor pool PHHs; settings: human, 1 μM
[16] = tested on: MCF7; settings: human, 1 μM
[17] = tested on: HEK293; settings: human, 1 μM
[18] = tested on: CYP2B6; test: Hydroxybupropion formation from bupropion in C3H10T1/2; type: in vitro ADME, mouse; settings: C3H10T1/2, 24 h, Michaelis-Menten fit
[19] = target: T1, CYP2B6 (Homo sapiens, UniProt P20813); test: Hydroxybupropion formation from bupropion in HepG2; type: in vitro ADME; settings: HepG2 cells
T1 sequence (P20813 1-491): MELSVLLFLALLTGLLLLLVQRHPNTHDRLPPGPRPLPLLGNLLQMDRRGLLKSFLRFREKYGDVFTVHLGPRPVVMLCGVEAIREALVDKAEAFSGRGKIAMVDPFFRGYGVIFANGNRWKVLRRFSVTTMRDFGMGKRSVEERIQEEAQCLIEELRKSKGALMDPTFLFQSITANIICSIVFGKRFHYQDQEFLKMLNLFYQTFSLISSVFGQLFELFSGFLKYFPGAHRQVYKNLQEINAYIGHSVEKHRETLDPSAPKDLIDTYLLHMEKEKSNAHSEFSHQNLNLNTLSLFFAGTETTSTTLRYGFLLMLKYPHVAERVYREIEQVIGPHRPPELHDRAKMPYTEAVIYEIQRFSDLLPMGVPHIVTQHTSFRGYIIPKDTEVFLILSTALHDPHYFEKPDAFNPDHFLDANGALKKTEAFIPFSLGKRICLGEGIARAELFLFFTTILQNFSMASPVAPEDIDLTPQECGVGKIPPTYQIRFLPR

[20] = target: T1, CYP2B6; test: Hydroxybupropion formation from bupropion in HEK293; type: in vitro ADME; settings: HEK293 cells
[21] = target: T1, CYP2B6; test: Hydroxybupropion formation from bupropion in HCT116; type: in vitro ADME; settings: HCT116 cells
[22] = tested on: CYP3A4/5; test: 1-Hydroxymidazolam formation from midazolam in PHH suspensions; type: in vitro ADME, human
[23] = tested on: CYP3A4/5; test: 1-Hydroxymidazolam formation from midazolam in HepG2; type: in vitro ADME, human
[24] = tested on: CYP1A2; test: Acetaminophen formation from phenacetin in HepG2; type: in vitro ADME, human
[25] = tested on: CYP1A2; test: Acetaminophen formation from phenacetin in C3H10T1/2; type: in vitro ADME, mouse
[26] = tested on: sulfotransferase; settings: ref Ishii and Tamura, 2003, cited from earlier work
[27] = HepG2, 24 h, Michaelis-Menten fit

SMILES: O=c1ccc2ccc(O)cc2o1 [7HC, 7-hydroxycoumarin]
- Percent Depletion 240 min [1]: 27%
- Mean Half-life ([1]; one-phase exponential decay): 4.843 h
- half-life at 1 μM [2]: ~4.83 h
- Percent Depletion 240 min [3]: 99%
- Mean Half-life ([3]; one-phase exponential decay): 0.378 h
- half-life at 1 μM [4]: ~0.383 h
- Percent Depletion 240 min [5]: 40%
- Mean Half-life ([5]; one-phase exponential decay): 4.875 h
- half-life at 1 μM [6]: ~4.83 h
- Percent Depletion 240 min [7]: 50%
- Percent Depletion 24 hour [7]: 99%
- Mean Half-life ([7]; one-phase exponential decay): 3.498 h
- half-life at 1 μM [8]: ~3.5 h

SMILES: O=C(O)[C@H]1O[C@@H](Oc2ccc3ccc(=O)oc3c2)[C@H](O)[C@@H](O)[C@@H]1O [7HCG, 7-hydroxycoumarin glucuronide]
- Phase II Metabolite Formation Rate [9]: 190 ± 41.8 pmol/minute-million cells
- Phase II Metabolite Formation Rate ([10]; MCF7, 150 minutes, 50 μM 7HC): 1.34 ± 0.206 pmol/minute-million cells
- Phase II Metabolite Formation Rate ([10]; MCF7, 24 hours, 50 μM 7HC): 0.809 ± 0.0457 pmol/minute-million cells
- Phase II Metabolite Formation Rate ([11]; HepG2, 150 minutes, 50 μM 7HC): 1.96 ± 0.887 pmol/minute-million cells
- Phase II Metabolite Formation Rate ([11]; HepG2, 24 hours, 50 μM 7HC): 2.89 ± 0.563 pmol/minute-million cells
- Phase II Metabolite Formation Rate ([12]; HEK293, 150 minutes, 50 μM 7HC): -------------^1
- Phase II Metabolite Formation Rate ([12]; HEK293, 24 hours, 50 μM 7HC): -------------^1

SMILES: Nn1nnc2ccccc21 [ABT, aminobenzotriazole]
- inhibition of CYP1A2 luminescent metabolite formation ([13]; ABT 1 mM, HepG2, MCF7, CHO-K1, C3H10T1/2, GH3TRE-Luc): only inhibited in CHO-K1 cells

SMILES: O=C(O)[C@H]1O[C@@H](Oc2ccc(C(c3ccc(O)cc3)(C(F)(F)F)C(F)(F)F)cc2)[C@H](O)[C@@H](O)[C@@H]1O [BPAF G, bisphenol AF glucuronide]
- Phase II Metabolite Formation Rate ([10]; MCF7, 150 minutes, 50 μM BPAF or BPS): -------------^1
- Phase II Metabolite Formation Rate ([10]; MCF7, 24 hours, 50 μM BPAF or BPS): -------------^1
- Phase II Metabolite Formation Rate ([11]; HepG2, 150 minutes, 50 μM BPAF or BPS): -------------^1
- Phase II Metabolite Formation Rate ([12]; HEK293, 150 minutes, 50 μM BPAF or BPS): -------------^1
- Phase II Metabolite Formation Rate ([12]; HEK293, 24 hours, 50 μM BPAF or BPS): -------------^1

SMILES: Oc1ccc(C(c2ccc(O)cc2)(C(F)(F)F)C(F)(F)F)cc1 [BPAF, bisphenol AF]
- Percent Depletion 240 min ([14]; 240 min): 36 ±/- 8.2%
- Percent Depletion 24 hour ([14]; 24 h): 66 ±/- 6.6%
- Mean Half-life (fast) ([14]; other cell line): 0.52 h
- Mean Half-life (slow) ([14]; other cell line): 1,626 min
- Percent Depletion 240 min ([15]; 240 min): 82 ±/- 2.9%
- Mean Half-life ([15]; hepatocytes): 1.44 h
- Percent Depletion 240 min ([16]; 240 min): 42 ±/- 7.7%
- Percent Depletion 24 hour ([16]; 24 h): 55 ±/- 7.4%
- Mean Half-life (fast) ([16]; other cell line): 0.388 h
- Mean Half-life (slow) ([16]; other cell line): ~9,684 min
- Percent Depletion 240 min ([17]; 240 min): 36 ±/- 5.4%
- Percent Depletion 24 hour ([17]; 24 h): 60 ±/- 4.5%
- Mean Half-life (slow) ([17]; other cell line): ~1,887 min

SMILES: CC(NC(C)(C)C)C(=O)c1cccc(Cl)c1 (stereo not drawn) [Bupropion, bupropion]
- Vmax CYP2B6 [18]: 0.0422 ± 0.0119
- Km at 24 h [19]: 4.79 ± 5.48 µM
- Km at 24 h [20]: 1260 ± 734 µM
- Km at 24 h [21]: 1910 ± 1050 µM

SMILES: Cc1ncc2n1-c1ccc(Cl)cc1C(c1ccccc1F)=NC2 [Midazolam, midazolam]
- Vmax CYP3A4/5 ([22]; PHH, 30 min, Michaelis-Menten fit): 187 ± 8.35
- Km at 30 min ([22]; human): 10.7 ± 1.34 µM
- Vmax CYP3A4/5 [23, 27]: 0.0177 ± 0.000912
- Km at 24 h ([23]; human, HepG2 cells): 0.969 ± 0.268 µM

SMILES: COc1ccc2[nH]c([S+]([O-])Cc3ncc(C)c(OC)c3C)nc2c1 (stereo not drawn) [OMP, omeprazole]
- induction of CYP1A2 luminescence ([13]; OMP 100 μM, Tox21 cell lines): only marginal increased luminescence

SMILES: CCOc1ccc(NC(C)=O)cc1 [Phenacetin]
- Vmax CYP1A2 [24, 27]: 0.320 ± 0.0234
- Km at 24 h ([24]; human, HepG2 cells): 38.4 ± 11.8 µM
- Vmax CYP1A2 ([25]; C3H10T1/2, 24 h, Michaelis-Menten fit): 0.168 ± 0.0393
- Km at 24 h ([25]; mouse, C3H10T1/2 cells): 247 ± 111 µM

SMILES: CC(C)(c1ccc(O)cc1)c1ccc(O)cc1 [bisphenol A]
- depletion ([26]; after 5 days incubations with 10 μM exposure): 4%
- Km ([26]; read-out: apparent Km for sulfotransferase activity): 74 µM
